Results as given in patent publication US10800791B2, “Triazole ACC inhibitors and uses thereof” (Gilead Apollo, LLC, priority 2015, dated 2020).
Values after ≈ are worked out from the molar mass of the structure shown. Read-outs that look alike come from different tables or passages of the source.

How the values were obtained:
[1] = tested on: C. albicans; assay: Antifungal Activity Assay (broth microtiter MIC), C. albicans; assay type: cell-based, Candida albicans; conditions: Candida albicans, ATCC90028, 48 h
Summary of the method: (§1)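 Endpoint: lowest concentration visibly inhibiting growth relative to control after 48 h. Inoculum of 2.5×10^3 CFU/mL final in RPMI 1640+MOPS, prepared from overnight 35° C agar cultures; test compounds diluted in water to 128 μg/mL before plating.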

[2] = target: human (hACC2) (Homo sapiens, UniProt O00763); assay: In vitro ACC inhibition assay (ADP-Glo), hACC2; assay type: biochemical; conditions: 5 nM ACC2, 20 μM ATP, 20 μM acetyl-CoA
human (hACC2), sequence (O00763 whole entry): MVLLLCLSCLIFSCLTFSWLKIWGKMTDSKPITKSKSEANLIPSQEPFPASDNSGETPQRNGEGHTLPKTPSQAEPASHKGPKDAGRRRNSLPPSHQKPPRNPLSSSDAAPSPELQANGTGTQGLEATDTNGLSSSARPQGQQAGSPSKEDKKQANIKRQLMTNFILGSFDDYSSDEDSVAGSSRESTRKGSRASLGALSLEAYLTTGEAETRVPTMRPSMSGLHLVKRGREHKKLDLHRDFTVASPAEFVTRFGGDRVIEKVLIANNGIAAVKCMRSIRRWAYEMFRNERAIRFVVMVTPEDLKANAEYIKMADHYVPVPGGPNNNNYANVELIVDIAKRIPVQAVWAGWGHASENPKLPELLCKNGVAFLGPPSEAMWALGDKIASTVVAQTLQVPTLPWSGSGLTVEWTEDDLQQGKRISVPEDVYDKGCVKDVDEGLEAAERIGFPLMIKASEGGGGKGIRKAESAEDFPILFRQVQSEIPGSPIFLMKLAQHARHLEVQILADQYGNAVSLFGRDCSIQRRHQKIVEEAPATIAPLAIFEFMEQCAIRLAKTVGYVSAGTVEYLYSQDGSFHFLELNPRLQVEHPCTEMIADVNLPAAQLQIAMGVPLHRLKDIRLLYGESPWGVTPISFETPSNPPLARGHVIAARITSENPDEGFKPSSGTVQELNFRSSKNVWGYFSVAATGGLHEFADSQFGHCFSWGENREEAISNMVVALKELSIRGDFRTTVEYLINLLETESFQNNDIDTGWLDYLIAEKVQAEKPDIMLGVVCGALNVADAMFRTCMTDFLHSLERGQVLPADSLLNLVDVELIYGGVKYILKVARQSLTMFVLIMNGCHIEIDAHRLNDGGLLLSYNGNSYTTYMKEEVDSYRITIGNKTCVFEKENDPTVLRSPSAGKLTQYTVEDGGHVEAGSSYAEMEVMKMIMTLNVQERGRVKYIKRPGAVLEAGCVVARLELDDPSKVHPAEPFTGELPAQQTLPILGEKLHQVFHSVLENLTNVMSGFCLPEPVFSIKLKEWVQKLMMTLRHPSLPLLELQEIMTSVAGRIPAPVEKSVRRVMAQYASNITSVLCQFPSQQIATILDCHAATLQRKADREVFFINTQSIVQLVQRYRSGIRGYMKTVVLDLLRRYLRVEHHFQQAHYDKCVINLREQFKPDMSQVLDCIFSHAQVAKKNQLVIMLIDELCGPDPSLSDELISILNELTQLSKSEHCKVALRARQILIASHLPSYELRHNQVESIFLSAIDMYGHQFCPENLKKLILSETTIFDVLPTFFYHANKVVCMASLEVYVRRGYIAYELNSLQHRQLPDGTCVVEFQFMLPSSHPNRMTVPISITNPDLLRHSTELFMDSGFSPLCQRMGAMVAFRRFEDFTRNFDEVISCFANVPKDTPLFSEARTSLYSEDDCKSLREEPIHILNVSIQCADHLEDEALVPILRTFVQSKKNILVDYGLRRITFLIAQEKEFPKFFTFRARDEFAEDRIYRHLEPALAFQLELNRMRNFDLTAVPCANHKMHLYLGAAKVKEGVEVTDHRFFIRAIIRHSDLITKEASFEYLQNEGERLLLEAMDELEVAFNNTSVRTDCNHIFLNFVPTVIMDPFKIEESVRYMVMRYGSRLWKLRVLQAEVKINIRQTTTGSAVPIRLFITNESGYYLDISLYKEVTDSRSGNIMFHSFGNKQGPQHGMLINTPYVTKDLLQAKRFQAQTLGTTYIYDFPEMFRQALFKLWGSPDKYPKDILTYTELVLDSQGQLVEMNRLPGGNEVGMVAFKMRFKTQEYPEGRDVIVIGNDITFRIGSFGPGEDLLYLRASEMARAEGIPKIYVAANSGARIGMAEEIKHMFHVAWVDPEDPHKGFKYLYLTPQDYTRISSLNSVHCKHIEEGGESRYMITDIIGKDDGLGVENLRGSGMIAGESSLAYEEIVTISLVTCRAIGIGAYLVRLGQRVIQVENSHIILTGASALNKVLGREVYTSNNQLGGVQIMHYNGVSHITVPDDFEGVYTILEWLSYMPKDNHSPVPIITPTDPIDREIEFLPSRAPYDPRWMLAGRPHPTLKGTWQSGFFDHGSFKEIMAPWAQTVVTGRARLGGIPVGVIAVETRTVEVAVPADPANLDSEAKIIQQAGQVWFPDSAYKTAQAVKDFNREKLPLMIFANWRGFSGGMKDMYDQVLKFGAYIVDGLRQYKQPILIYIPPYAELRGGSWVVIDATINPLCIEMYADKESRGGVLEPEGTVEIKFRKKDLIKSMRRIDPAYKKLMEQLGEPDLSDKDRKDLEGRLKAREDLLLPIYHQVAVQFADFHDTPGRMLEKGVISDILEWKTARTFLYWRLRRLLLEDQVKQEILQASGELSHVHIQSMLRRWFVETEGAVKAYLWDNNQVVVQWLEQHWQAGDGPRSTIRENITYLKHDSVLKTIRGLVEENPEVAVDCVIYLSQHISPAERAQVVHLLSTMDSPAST
Procedure: The detailed procedure is as follows. […] 10 μL ADP glo reagent was added. […] 20 μL kinase detection reagent was added.

[3] = tested on: Diplodia maydis (Dm); assay: Growth inhibition assay of fungal pathogens, Dm; assay type: cell-based; conditions: Stenocarpella maydis, 48 h, growth inhibition at 48 hours vs 2% DMSO control
Procedure: (§2) Compounds of the present invention were evaluated in a growth inhibition assay to determine the ability to control the growth of fungal pathogens, such as Botrtyis cinerea (Bc), Collectotrichum graminicola (Cg), Diplodia maydis (Dm), Fusarium moniliforme (Fm), Fusarium virguliforme (Fv), Phytophthora capsici (Pc), Rhizoctonia solani (Rs), and Septoria tritici (St).
(§3) Compounds to be tested were dissolved in DMSO at 2.5 mg/ml to produce compound stock solutions (“stocks”). Stocks were diluted with DMSO by a five-fold dilution in a 96-well stock plate, and two sets of final concentrations of 50, 10, and 2 ppm or 2, 0.4, and 0.08 ppm were obtained in vitro. A set of positive controls was also prepared, with various concentrations of Soraphen (2, 0.4, and 0.08 ppm), Metalaxyl (1.1, 0.22, and 0.04 ppm), and Metconazole (2, 0.4, and 0.08 ppm or 0.2, 0.04, and 0.008 ppm) after the five-fold dilutions. Negative controls on each plate included 2% DMSO, water, and a blank (media+2% DMSO).
(§4) Fungal spores were isolated from previously sub-cultured plates of Botrtyis cinerea (Bc), Collectotrichum graminicola (Cg), Diplodia maydis (Dm), Fusarium moniliforme (Fm), Fusarium virguliforme (Fv), Phytophthora capsici (Pc), and Septoria tritici (St). The isolated spores were diluted to individual concentrations with a 17% V8 liquid media. For Rhizoctonia solani (Rs) and Pythium irregulare, 1.5 mm mycelial plugs were used in place of spores and/4 Potato Dextrose Broth (PDB) was used for dilution. The spore concentrations and plug sizes were based on growth curves generated at 48 hours for each pathogen.
(§5) In a second 96-well plate, the spores or mycelial plugs, media, diluted compound solutions, and controls were combined. Once the compound was added, a true final concentration of compound in each well was measured by an OD600 reading, which adjusted for any compound precipitation that might have occurred in the well. Plate readings were repeated at both 24 and 48 hours. The blank negative control was used as a background subtraction. Additional visual ratings were performed at both 24 and 48 hours for checking on precipitation and confirming efficacy. Visual and OD600 ratings of the compounds at 48 hours were compared to the 2% DMSO negative control, and the percent of pathogen growth inhibition was determined based on those values.

[4] = tested on: Fusarium virguliforme (Fv); assay: Growth inhibition assay of fungal pathogens, Fv; assay type: cell-based; conditions: 48 h
Procedure: as §2, §3, §4, §5

[5] = tested on: C. parapsilosis; assay: Antifungal Activity Assay (broth microtiter MIC), C. parapsilosis; assay type: cell-based, Candida parapsilosis; conditions: Lodderomyces parapsilosis, ATCC22019, 48 h
Summary of the method: as §1

[6] = tested on: Phytophthora capsici (Pc); assay: Growth inhibition assay of fungal pathogens, Pc; assay type: cell-based; conditions: 48 h
Procedure: as §2, §3, §4, §5

[7] = tested on: Collectotrichum graminicola (Cg); assay: Growth inhibition assay of fungal pathogens, Cg; assay type: cell-based; conditions: 48 h, growth inhibition at 48 hours vs 2% DMSO control
Procedure: as §2, §3, §4, §5

[8] = target: fungal (fACC2) (UniProt Q00955); conditions: read-out: fACC2 (in vitro ACC2 Inhibition Assay, IC50), ADP-Glo, 5 nM ACC2, 20 μM ATP, 20 μM acetyl-CoA
fungal (fACC2), sequence (Q00955 whole entry): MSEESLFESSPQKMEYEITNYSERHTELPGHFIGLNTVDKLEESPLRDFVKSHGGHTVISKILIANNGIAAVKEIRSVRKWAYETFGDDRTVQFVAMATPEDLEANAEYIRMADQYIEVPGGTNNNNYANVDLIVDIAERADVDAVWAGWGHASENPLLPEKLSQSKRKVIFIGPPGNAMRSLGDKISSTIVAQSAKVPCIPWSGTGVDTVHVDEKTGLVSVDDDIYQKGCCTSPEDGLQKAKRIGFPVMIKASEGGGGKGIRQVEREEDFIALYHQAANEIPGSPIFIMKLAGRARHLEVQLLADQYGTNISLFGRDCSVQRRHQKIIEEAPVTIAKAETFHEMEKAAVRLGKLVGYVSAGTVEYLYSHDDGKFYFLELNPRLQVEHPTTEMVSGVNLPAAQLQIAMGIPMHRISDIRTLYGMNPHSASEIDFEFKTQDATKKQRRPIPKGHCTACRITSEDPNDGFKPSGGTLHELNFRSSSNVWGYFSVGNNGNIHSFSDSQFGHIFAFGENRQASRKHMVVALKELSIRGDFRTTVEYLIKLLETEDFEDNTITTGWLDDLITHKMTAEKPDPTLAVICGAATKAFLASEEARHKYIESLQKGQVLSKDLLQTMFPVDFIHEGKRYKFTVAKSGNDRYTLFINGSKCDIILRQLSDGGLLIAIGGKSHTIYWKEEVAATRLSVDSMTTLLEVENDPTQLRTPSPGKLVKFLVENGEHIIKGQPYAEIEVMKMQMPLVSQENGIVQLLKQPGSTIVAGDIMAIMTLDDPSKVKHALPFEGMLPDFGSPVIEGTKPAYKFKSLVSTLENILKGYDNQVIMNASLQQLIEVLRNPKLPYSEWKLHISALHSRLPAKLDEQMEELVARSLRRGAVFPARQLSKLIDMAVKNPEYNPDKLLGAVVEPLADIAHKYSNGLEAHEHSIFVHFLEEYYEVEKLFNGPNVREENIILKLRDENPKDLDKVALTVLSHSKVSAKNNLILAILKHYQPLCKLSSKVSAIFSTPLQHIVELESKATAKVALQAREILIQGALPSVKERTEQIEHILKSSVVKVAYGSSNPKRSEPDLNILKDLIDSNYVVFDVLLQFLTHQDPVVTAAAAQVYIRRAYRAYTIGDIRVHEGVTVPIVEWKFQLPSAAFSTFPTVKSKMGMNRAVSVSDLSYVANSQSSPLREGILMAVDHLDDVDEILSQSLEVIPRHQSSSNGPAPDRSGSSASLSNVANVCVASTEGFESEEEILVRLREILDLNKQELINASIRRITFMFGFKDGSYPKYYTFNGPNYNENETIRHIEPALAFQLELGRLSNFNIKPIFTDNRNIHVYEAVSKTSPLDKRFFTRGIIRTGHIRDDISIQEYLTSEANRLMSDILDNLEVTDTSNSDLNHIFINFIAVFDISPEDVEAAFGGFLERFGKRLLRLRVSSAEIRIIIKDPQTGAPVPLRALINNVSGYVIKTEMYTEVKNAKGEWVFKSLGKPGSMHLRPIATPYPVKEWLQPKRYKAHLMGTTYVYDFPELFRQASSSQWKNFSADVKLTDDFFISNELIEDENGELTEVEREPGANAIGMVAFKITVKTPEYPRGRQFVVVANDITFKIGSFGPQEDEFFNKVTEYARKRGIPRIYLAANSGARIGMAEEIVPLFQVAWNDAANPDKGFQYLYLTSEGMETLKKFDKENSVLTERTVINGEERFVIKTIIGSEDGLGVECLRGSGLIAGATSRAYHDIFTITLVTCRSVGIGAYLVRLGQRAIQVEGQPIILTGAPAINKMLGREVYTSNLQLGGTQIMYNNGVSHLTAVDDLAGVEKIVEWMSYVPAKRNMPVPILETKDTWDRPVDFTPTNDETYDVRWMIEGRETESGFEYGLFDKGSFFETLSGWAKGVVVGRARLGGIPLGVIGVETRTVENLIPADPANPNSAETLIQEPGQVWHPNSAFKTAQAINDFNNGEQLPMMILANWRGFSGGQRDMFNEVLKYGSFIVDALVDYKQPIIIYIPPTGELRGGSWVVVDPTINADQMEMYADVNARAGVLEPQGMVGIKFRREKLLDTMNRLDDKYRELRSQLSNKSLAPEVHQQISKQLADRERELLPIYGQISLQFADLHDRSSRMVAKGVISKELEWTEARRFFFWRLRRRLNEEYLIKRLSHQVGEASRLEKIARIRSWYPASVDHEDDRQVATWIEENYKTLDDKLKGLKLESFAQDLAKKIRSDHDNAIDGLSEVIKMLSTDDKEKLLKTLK

[9] = tested on: C. krusei; assay: Antifungal Activity Assay (broth microtiter MIC), C. krusei; assay type: cell-based, Candida krusei; conditions: Pichia kudriavzevii, ATCC6258, 48 h
Summary of the method: as §1

[10] = tested on: Rhizoctonia solani (Rs); assay: Growth inhibition assay of fungal pathogens, Rs; assay type: cell-based; conditions: 48 h
[11] = tested on: Fusarium moniliforme (Fm); assay: Growth inhibition assay of fungal pathogens, Fm; assay type: cell-based; conditions: Fusarium verticillioides, 48 h, read-out: Concentration at 90% Inhibition Fm
Procedure: as §2, §3, §4, §5

[12] = tested on: Botrtyis cinerea (Bc); assay: Growth inhibition assay of fungal pathogens, Bc; assay type: cell-based; conditions: 48 h, growth inhibition at 48 hours vs 2% DMSO control
Procedure: as §2, §3, §4, §5

[13] = tested on: Septoria tritici (St); assay: Growth inhibition assay of fungal pathogens, St; assay type: cell-based; conditions: Zymoseptoria tritici, 48 h, growth inhibition at 48 hours vs 2% DMSO control
Procedure: as §2, §3, §4, §5

[14] = Table 3a, ATCC 90028, 3 replicates, MIC recorded at 48 h, read-out: MIC, C. albicans ATCC 90028
[15] = Table 3b (additional results), ATCC 90028, 3 replicates, MIC recorded at 48 h, read-out: MIC, C. albicans ATCC 90028
[16] = Diplodia maydis, read-out: Concentration at 90% Inhibition Dm
[17] = growth inhibition at 48 hours vs 2% DMSO control, read-out: Concentration at 90% Inhibition Fv
[18] = Table 3a, ATCC 22019, 3 replicates, MIC recorded at 48 h, read-out: MIC, C. parapsilosis ATCC 22019
[19] = Table 3b (additional results), ATCC 22019, 3 replicates, MIC recorded at 48 h, read-out: MIC, C. parapsilosis ATCC 22019
[20] = growth inhibition at 48 hours vs 2% DMSO control, read-out: Concentration at 90% Inhibition Pc
[21] = Collectotrichum graminicola, read-out: Concentration at 90% Inhibition Cg
[22] = Table 3a, ATCC 6258, 3 replicates, MIC recorded at 48 h, read-out: MIC, C. krusei ATCC 6258
[23] = Table 3b (additional results), ATCC 6258, 3 replicates, MIC recorded at 48 h, read-out: MIC, C. krusei ATCC 6258
[24] = mycelial plugs, growth inhibition at 48 hours vs 2% DMSO control, read-out: Concentration at 90% Inhibition Rs
[25] = Fusarium moniliforme, growth inhibition at 48 hours vs 2% DMSO control
[26] = Botrtyis cinerea, read-out: Concentration at 90% Inhibition Bc
[27] = Septoria tritici, read-out: Concentration at 90% Inhibition St

Structure (SMILES)	MIC [1, 14] [µg/mL]	MIC [1, 15] [µg/mL]	IC50 ([2]; Table 2a) [nM]	IC50 ([2]; Table 2b, additional results) [nM]	IC90 [3, 16] [µg/mL]	IC90 [4, 17] [µg/mL]	MIC [5, 18] [µg/mL]	MIC [5, 19] [µg/mL]	IC90 [6, 20] [µg/mL]	IC90 [7, 21] [µg/mL]	IC50 ([8]; Table 2a) [nM]	IC50 ([8]; Table 2b, additional results) [nM]	MIC [9, 22] [µg/mL]	MIC [9, 23] [µg/mL]	IC90 [10, 24] [µg/mL]	IC90 [11, 25] [µg/mL]	IC90 [12, 26] [µg/mL]	IC90 [13, 27] [µg/mL]	other results
CCOC(=O)C(C)(C)n1c(=O)c2c(C)c(-n3nccn3)sc2n(C[C@H](OCCO)c2cc(F)ccc2OC)c1=O [Compound I-74, Ethyl (R)-2-(1-(2-(5-fluoro-2-methoxyphenyl)-2-(2-hydroxyethoxy)ethyl)-5-methyl-2,4-dioxo-6-(2H-1,2,3-triazol-2-yl)-1,4-dihydro-thieno[2,3-d]pyrimidin-3(2H)-yl)-2-methylpropanoate]	2.1 to 4 (≈ 3.65 to 6.95 µM)	2.01 to 4 (≈ 3.49 to 6.95 µM)	5 to 10	5 to 10	0.4 (≈ 0.695 µM)	0.4 (≈ 0.695 µM)	2.1 to 4 (≈ 3.65 to 6.95 µM)	2.01 to 4 (≈ 3.49 to 6.95 µM)	> 50	0.4 (≈ 0.695 µM)	1 to 5	1 to 5	0.25 to 1 (≈ 0.434 to 1.74 µM)	1.01 to 2 (≈ 1.75 to 3.47 µM)	0.08 (≈ 0.139 µM)	0.08 (≈ 0.139 µM)	0.08 (≈ 0.139 µM)	10 (≈ 17.4 µM)	
CCc1ccc(F)cc1[C@H](Cn1c(=O)n(C(C)(C)C(=O)NC(C)C)c(=O)c2c(C)c(-n3nccn3)sc21)OCCO [Compound I-124]	0.25 to 1 (≈ 0.426 to 1.7 µM)	2.01 to 4 (≈ 3.43 to 6.82 µM)	1 to 5	1 to 5	0.4 (≈ 0.682 µM)	0.08 (≈ 0.136 µM)	0.25 to 1 (≈ 0.426 to 1.7 µM)	2.01 to 4 (≈ 3.43 to 6.82 µM)	10 (≈ 17 µM)	0.08 (≈ 0.136 µM)	0.4 to 1	0.3 to 1	0.06 to 0.24 (≈ 0.102 to 0.409 µM)	2.01 to 4 (≈ 3.43 to 6.82 µM)	0.08 (≈ 0.136 µM)	0.08 (≈ 0.136 µM)	0.4 (≈ 0.682 µM)	2 (≈ 3.41 µM)	
CCc1ccc(F)cc1[C@H](Cn1c(=O)n(C(C)(C)C(=O)NC(C)C)c(=O)c2c(C)c(-n3nccn3)sc21)OCCOC [Compound I-126]	1.1 to 2 (≈ 1.83 to 3.33 µM)	> 4.01	5 to 10	5 to 10	2 (≈ 3.33 µM)	0.4 (≈ 0.666 µM)	1.1 to 2 (≈ 1.83 to 3.33 µM)	2.01 to 4 (≈ 3.35 to 6.66 µM)	> 50	0.4 (≈ 0.666 µM)	1 to 5	1 to 5	0.25 to 1 (≈ 0.416 to 1.66 µM)	> 4.01	2 (≈ 3.33 µM)	0.08 (≈ 0.133 µM)	0.4 (≈ 0.666 µM)	10 (≈ 16.6 µM)	
COc1ccccc1[C@H](Cn1c(=O)n(C(C)(C)C(=O)NC(C)C)c(=O)c2c(C)c(-n3nccn3)sc21)OCCC#N [Compound I-136, 2-[1-[(2R)-2-(2-cyanoethoxy)-2-(2-methoxyphenyl)ethyl]-5-methyl-2,4-dioxo-6-(2H-1,2,3-triazol-2-yl)-1H,2H,3H,4H-thieno[2,3-d]pyrimidin-3-yl]-2-methyl-N-(propan-2-yl)propanamide]			5 to 10	5 to 10							1 to 5	0.3 to 1							MIC ([1]; read-out: MIC, C. albicans ATCC 90028, Table 3a, 3 replicates, MIC recorded at 48 h): 0.25 to 1 µg/mL (≈ 0.431 to 1.73 µM); MIC ([1]; read-out: MIC, C. albicans ATCC 90028, Table 3b (additional results), 3 replicates, MIC recorded at 48 h): 1.01 to 2 µg/mL (≈ 1.74 to 3.45 µM); IC90 ([3]; read-out: Concentration at 90% Inhibition Dm, Diplodia maydis): 0.08 µg/mL (≈ 0.138 µM); IC90 ([4]; read-out: Concentration at 90% Inhibition Fv, Fusarium virguliforme, growth inhibition at 48 hours vs 2% DMSO control): 0.4 µg/mL (≈ 0.69 µM); MIC ([5]; read-out: MIC, C. parapsilosis ATCC 22019, Table 3a, 3 replicates, MIC recorded at 48 h): 0.25 to 1 µg/mL (≈ 0.431 to 1.73 µM); MIC ([5]; read-out: MIC, C. parapsilosis ATCC 22019, Table 3b (additional results), 3 replicates, MIC recorded at 48 h): 0.25 to 1 µg/mL (≈ 0.431 to 1.73 µM); IC90 ([6]; read-out: Concentration at 90% Inhibition Pc, Phytophthora capsici, growth inhibition at 48 hours vs 2% DMSO control): 2 µg/mL (≈ 3.45 µM); IC90 ([7]; read-out: Concentration at 90% Inhibition Cg, Collectotrichum graminicola): 0.08 µg/mL (≈ 0.138 µM); MIC ([9]; read-out: MIC, C. krusei ATCC 6258, Table 3a, 3 replicates, MIC recorded at 48 h): 0.06 to 0.24 µg/mL (≈ 0.104 to 0.414 µM); MIC ([9]; read-out: MIC, C. krusei ATCC 6258, Table 3b (additional results), 3 replicates, MIC recorded at 48 h): 0.25 to 1 µg/mL (≈ 0.431 to 1.73 µM); IC90 ([10]; read-out: Concentration at 90% Inhibition Rs, Rhizoctonia solani, mycelial plugs, growth inhibition at 48 hours vs 2% DMSO control): 0.08 µg/mL (≈ 0.138 µM); IC90 [11]: 0.08 µg/mL (≈ 0.138 µM); IC90 ([12]; read-out: Concentration at 90% Inhibition Bc, Botrtyis cinerea): 0.08 µg/mL (≈ 0.138 µM); IC90 ([13]; read-out: Concentration at 90% Inhibition St, Septoria tritici): 2 µg/mL (≈ 3.45 µM)
